In patent US12410171B2, “Tropomyosin receptor kinase (TRK) degradation compounds and methods of use” (Cullgen (Shanghai), Inc., priority 2020, dated 2025):

What follows are compounds tested against T1, TPM3-TRKA fusion protein (Homo sapiens, UniProt P04629) (assay: TPM3-TRKA fusion protein levels in KM12 cells (Western blot)). Conditions: 16 h; TPM3-TRKA degradation in KM12 cells at 10 nM compound, category of percentage degradation; read-out: Degradation (at 10 nM).
T1 construct: The resulted chimeric proteins always retain the kinase domain of TRK proteins; TPM3 (fusion partner, N-terminal part of tropomyosin alpha-3, P06753); endogenous in cells; host or cells: KM12 colon cancer cells; the other entry of the earlier key: TPM3 (P06753, Tropomyosin alpha-3 chain)
T1 sequence (P04629 with tags, fused parts or gaps): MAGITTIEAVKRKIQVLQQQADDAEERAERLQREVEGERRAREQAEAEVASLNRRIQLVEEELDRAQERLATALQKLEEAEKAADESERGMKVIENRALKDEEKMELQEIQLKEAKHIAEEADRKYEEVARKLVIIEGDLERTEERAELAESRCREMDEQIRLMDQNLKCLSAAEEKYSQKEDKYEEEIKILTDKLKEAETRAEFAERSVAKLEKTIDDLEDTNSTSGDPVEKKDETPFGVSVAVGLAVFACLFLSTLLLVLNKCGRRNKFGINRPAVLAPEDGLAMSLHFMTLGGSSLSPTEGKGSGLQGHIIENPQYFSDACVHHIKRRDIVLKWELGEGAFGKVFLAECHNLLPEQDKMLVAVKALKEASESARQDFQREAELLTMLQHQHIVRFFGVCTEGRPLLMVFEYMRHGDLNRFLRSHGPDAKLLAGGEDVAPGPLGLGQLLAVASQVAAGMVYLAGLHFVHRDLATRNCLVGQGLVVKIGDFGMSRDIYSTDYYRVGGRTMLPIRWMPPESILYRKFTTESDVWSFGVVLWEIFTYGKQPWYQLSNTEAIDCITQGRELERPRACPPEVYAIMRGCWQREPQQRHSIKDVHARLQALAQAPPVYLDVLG
Type: cell-based
Outline: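 TPM3-TRKA levels were assessed by Western blot with chemiluminescent detection and band densitometry, after SDS-PAGE of BCA-normalized RIPA lysates. Before lysis, KM12 cells received DMSO, compounds or matched control compounds at concentrations including 0.1, 1, 10 and 100 nM and 0.4–30 nM. Exposures lasted 4 h, 8–16 h or 16 h.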

| percent degradation of TPM3-TRKA protein at 0.01 µM [%] | SMILES |
| --- | --- |
| > 80 | O=C1CCC(N2C[C@H](c3ccc(C#CCN4CCN(c5cccc(-c6cnc7ccc(N8CCCC8c8cccc(F)c8)nn67)n5)CC4)cc3)OC2=O)C(=O)N1 (stereo in doubt) [TR-224, 3-((S)-5-(4-(3-(4-(6-(6-((S)-2-(3-fluorophenyl)pyrrolidin-1-yl)imidazo[1,2-b]pyridazin-3-yl)pyridin-2-yl)piperazin-1-yl)prop-1-yn-1-yl)phenyl)-2-oxooxazolidin-3-yl)piperidine-2,6-dione] |

Each compound was assayed on KM12 cells (assay: KM12 cell viability (CellTiter-Glo)). Conditions: Homo sapiens, 72 h; KM12 cell viability, 11-point 3-fold serial dilution, 3 days, CellTiter-Glo; read-out: IC50.
Type: cell-based
Outline: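 Three-day exposure of KM12 cells (5000/well, RPMI 1640 with 10% FBS, 37 °C, 5% CO2) to compound dilution series, 3-fold over 8 or 11 points (top 1000 nM in the 8-point format) or 2-fold over 12. CellTiter-Glo readout, with IC50 fitted by nonlinear least-squares regression.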

| SMILES | IC50 [nM] |
| --- | --- |
| COc1ccc(COc2ccc(Cn3c(N)nc4cc(-c5cnn(CC(=O)NCCOCCOCCOCCOCCC(=O)N[C@H](C(=O)N6C[C@H](O)C[C@H]6C(=O)NCc6ccc(-c7scnc7C)cc6)C(C)(C)C)c5)cnc43)cc2OC)cc1 [CPD-515, (2S,4R)-1-((S)-1-(4-(2-amino-3-(3-methoxy-4-((4-methoxybenzyl)oxy)benzyl)-3H-imidazo[4,5-b]pyridin-6-yl)-1H-pyrazol-1-yl)-20-(tert-butyl)-2,18-dioxo-6,9,12,15-tetraoxa-3,19-diazahenicosan-21-oyl)-4-hydroxy-N-(4-(4-methylthiazol-5-yl)benzyl)pyrrolidine-2-carboxamide] | 343 |
| COc1ccc(COc2ccc(Cn3c(N)nc4cc(-c5cnn(CC(=O)NCCOCCOCCOCCOCCOCCC(=O)N[C@H](C(=O)N6C[C@H](O)C[C@H]6C(=O)NCc6ccc(-c7scnc7C)cc6)C(C)(C)C)c5)cnc43)cc2OC)cc1 [CPD-516, (2S,4R)-1-((S)-1-(4-(2-amino-3-(3-methoxy-4-((4-methoxybenzyl)oxy)benzyl)-3H-imidazo[4,5-b]pyridin-6-yl)-1H-pyrazol-1-yl)-23-(tert-butyl)-2,21-dioxo-6,9,12,15,18-pentaoxa-3,22-diazatetracosan-24-oyl)-4-hydroxy-N-(4-(4-methylthiazol-5-yl)benzyl)pyrrolidine-2-carboxamide] | 473 |

Same assay, conditions: Homo sapiens, 72 h; KM12 cell viability, CellTiter-Glo, three days treatment; read-out: IC50

| SMILES | IC50 [nM] |
| --- | --- |
| O=C1CCC(N2C[C@H](c3ccc(C#CCN4CCN(c5cccc(-c6cnc7ccc(N8CCCC8c8cccc(F)c8)nn67)n5)CC4)cc3)OC2=O)C(=O)N1 (stereo in doubt) [TR-224, 3-((S)-5-(4-(3-(4-(6-(6-((S)-2-(3-fluorophenyl)pyrrolidin-1-yl)imidazo[1,2-b]pyridazin-3-yl)pyridin-2-yl)piperazin-1-yl)prop-1-yn-1-yl)phenyl)-2-oxooxazolidin-3-yl)piperidine-2,6-dione] | 8.7 |
| O=C1CCC(N2Cc3cc(OCCN4CCN(c5cccc(-c6cnc7ccc(N8CCC[C@@H]8c8cccc(F)c8)nn67)n5)CC4)ccc3C2=O)C(=O)N1 (stereo partly drawn) [TR-200, 3-(5-(2-(4-(6-(6-((R)-2-(3-fluorophenyl)pyrrolidin-1-yl)imidazo[1,2-b]pyridazin-3-yl)pyridin-2-yl)piperazin-1-yl)ethoxy)-1-oxoisoindolin-2-yl)piperidine-2,6-dione] | 101 |
| O=C1CCC(N2Cc3ccc(OCCN4CCN(c5cccc(-c6cnc7ccc(N8CCC[C@@H]8c8cccc(F)c8)nn67)n5)CC4)cc3C2=O)C(=O)N1 (stereo partly drawn) [TR-201, 3-(6-(2-(4-(6-(6-((R)-2-(3-fluorophenyl)pyrrolidin-1-yl)imidazo[1,2-b]pyridazin-3-yl)pyridin-2-yl)piperazin-1-yl)ethoxy)-1-oxoisoindolin-2-yl)piperidine-2,6-dione] | > 500 |
| O=C1CCC(N2C(=O)c3ccc(N4CC(CN5CCC(n6ccc(-c7cnc8ccc(N9CCC[C@@H]9c9cccc(F)c9)nn78)c6)CC5)C4)cc3C2=O)C(=O)N1 (stereo partly drawn) [TR-222, 2-(2,6-Dioxopiperidin-3-yl)-5-(3-((4-(3-(6-((R)-2-(3-fluorophenyl)pyrrolidin-1-yl)imidazo[1,2-b]pyridazin-3-yl)-1H-pyrrol-1-yl)piperidin-1-yl)methyl)azetidin-1-yl)isoindoline-1,3-dione] | > 500 |
| O=C1CCC(N2C(=O)c3ccc(N4CC(CN5CCN(c6cccc(-c7cnc8ccc(N9CCC[C@@H]9c9cccc(F)c9)cn78)n6)CC5)C4)cc3C2=O)C(=O)N1 (stereo partly drawn) [TR-234, 2-(2,6-dioxopiperidin-3-yl)-5-(3-((4-(6-(6-((R)-2-(3-fluorophenyl)pyrrolidin-1-yl)imidazo[1,2-a]pyridin-3-yl)pyridin-2-yl)piperazin-1-yl)methyl)azetidin-1-yl)isoindoline-1,3-dione] | 284 |
| O=C1CCC(n2c(=O)n(CCCN3CCN(c4cccc(-c5cnc6ccc(N7CCC[C@@H]7c7cccc(F)c7)cn56)n4)CC3)c3ccccc32)C(=O)N1 (stereo partly drawn) [TR-243, 3-(3-(3-(4-(6-(6-((R)-2-(3-Fluorophenyl)pyrrolidin-1-yl)imidazo[1,2-a]pyridin-3-yl)pyridin-2-yl)piperazin-1-yl)propyl)-2-oxo-2,3-dihydro-1H-benzo[d]imidazol-1-yl)piperidine-2,6-dione] | > 500 |
| Cn1c(=O)n(C2CCC(=O)NC2=O)c2ccc(OCCCN3CCN(c4cccc(-c5cnc6ccc(N7CCC[C@@H]7c7cccc(F)c7)nn56)n4)CC3)cc21 (stereo partly drawn) [TR-257, 3-(5-(3-(4-(6-(6-((R)-2-(3-Fluorophenyl)pyrrolidin-1-yl)imidazo[1,2-b]pyridazin-3-yl)pyridin-2-yl)piperazin-1-yl)propoxy)-3-methyl-2-oxo-2,3-dihydro-1H-benzo[d]imidazol-1-yl)piperidine-2,6-dione] | > 500 |
| O=C1CCC(N2C(=O)c3ccc(CN4CCN(c5ccc(C(=O)Nc6n[nH]c7ccc(Cc8cc(F)cc(F)c8)cc67)c(NC6CCOCC6)c5)CC4)cc3C2=O)C(=O)N1 (stereo not shown) [TR-274, N-(5-(3,5-Difluorobenzyl)-1H-indazol-3-yl)-4-(4-((2-(2,6-dioxopiperidin-3-yl)-1,3-dioxoisoindolin-5-yl)methyl)piperazin-1-yl)-2-((tetrahydro-2/-pyran-4-yl)amino)benzamide] | 440 |
| O=C1CCC(N2C(=O)c3ccc(CCN4CCN(c5ccc(C(=O)Nc6n[nH]c7ccc(Cc8cc(F)cc(F)c8)cc67)c(NC6CCOCC6)c5)CC4)cc3C2=O)C(=O)N1 (stereo not shown) [TR-277, N-(5-(3,5-Difluorobenzyl)-1H-indazol-3-yl)-4-(4-(2-(2-(2,6-dioxopiperidin-3-yl)-1,3-dioxoisoindolin-S-yl)ethyl)piperazin-1-yl)-2-((tetrahydro-2H-pyran-4-yl)amino)benzamide] | > 500 |
| O=C1CCC(N2C(=O)c3ccc(N4CC5(CCC(N6CCN(c7ccc(C(=O)Nc8n[nH]c9ccc(Cc%10cc(F)cc(F)c%10)cc89)c(NC8CCOCC8)c7)CC6)C5)C4)cc3C2=O)C(=O)N1 (stereo not shown) [TR-291, N-(5-(3,5˜Difluorobenzyl)-1H-indazol-3-yl)-4-(4-(2-(2-(2,6-dioxopiperidin-3-yl)-1,3-dioxoisoindolin-5-yl)-2-azaspiro[3.4]octan-6-yl)piperazin-1-yl)-2-((tetrahydro-2H-pyran˜4-yl)amino)benzamide] | 446 |
| Cc1nc2cccc(N3CC(CCN4CCN(c5cccc(-c6cnc7ccc(N8CCC[C@@H]8c8cccc(F)c8)nn67)n5)CC4)C3)c2c(=O)n1C1CCC(=O)NC1=O (stereo partly drawn) [TR-307, 3-(5˜ (3-(2-(4-(6-(6-((R)-2-(3-Fluorophenyl)pyrrolidin-1-yl)imidazo[1,2-b]pyridazin-3-yl)pyridin-2-yl)piperazin-1-yl)ethyl)azetidin-1-yl)-2-methyl-4-oxoquinazolin-3 (4H)-yl)piperidine-2,6-dione] | 12.7 |
| O=C1CCC(n2c(=O)n(CCN3CCN(c4ccc(C(=O)Nc5n[nH]c6ccc(Cc7cc(F)cc(F)c7)cc56)c(NC5CCOCC5)c4)CC3)c3ccccc32)C(=O)N1 (stereo not drawn) [TR-310, N—(S-(3,5-Difluorobenzyl)-1H-indazol-3-yl)-4-(4-(2-(3-(2,6-dioxopiperidin-3-yl)-2-oxo-2,3-dihydro-1H-benzo[d]imidazol-1-yl)ethyl)piperazin-1-yl)-2-((tetrahydro-2H-pyran-4-yl)amino)benzamide] | 12.5 |
| O=C1CCC(n2c(=O)n(CCCN3CCN(c4ccc(C(=O)Nc5n[nH]c6ccc(Cc7cc(F)cc(F)c7)cc56)c(NC5CCOCC5)c4)CC3)c3ccccc32)C(=O)N1 (stereo not drawn) [TR-311, N—(S-(3,5-Difluorobenzyl)-1H-indazol-3-yl)-4-(4-(3-(3-(2,6-dioxopiperidin-3-yl)-2-oxo-2,3-dihydro-1H-benzo[d]imidazol-1-yl)propyl)piperazin-1-yl)-2˜ ((tetrahydro-2H-pyran-4-yl)amino)benzamide] | 14.8 |
| Cn1c(=O)n(C2CCC(=O)NC2=O)c2cccc(OCCCN3CCN(c4ccc(C(=O)Nc5n[nH]c6ccc(Cc7cc(F)cc(F)c7)cc56)c(NC5CCOCC5)c4)CC3)c21 (stereo not shown) [TR-312, N-(5-(3,5-Difluorobenzyl)-1H-indazol-3-yl)-4-(4-(3-((1-(2,6-dioxopiperidin-3-yl)-3-methyl-2-oxo-2,3-dihydro-1H-benzo[d]imidazol-4-yl)oxy)propyl)piperazin-1-yl)-2-((tetrahydro-2/˜pyran-4-yl)amino)benzamide] | 107 |
| Cn1c(=O)n(C2CCC(=O)NC2=O)c2ccc(OCCCN3CCN(c4ccc(C(=O)Nc5n[nH]c6ccc(Cc7cc(F)cc(F)c7)cc56)c(NC5CCOCC5)c4)CC3)cc21 (stereo not shown) [TR-313, N-(5-(3,5-Difluorobenzyl)-1H-indazol-3-yl)-4-(4-(3-((1-(2,6-dioxopiperidin-3-yl)-3-methyl-2-oxo-2,3-dihydro-1H-benzo[d]imidazol-5-yl)oxy)propyl)piperazin-1-yl)-2-((tetrahydro-2/1-pyran-4-yl)amino)benzamide] | 13.8 |
| O=C1CCC(N2C(=O)c3ccc(N4CC5(CN(CC6CCN(c7ccc(C(=O)Nc8n[nH]c9ccc(Cc%10cc(F)cc(F)c%10)cc89)c(NC8CCOCC8)c7)CC6)C5)C4)cc3C2=O)C(=O)N1 (stereo not shown) [TR-329] | > 500 |
